One assay has as its system HHV-1. Description: HHV-1 viral attachment assay on Vero cells (plaque reduction). Conditions: Human alphaherpesvirus 1, Vero. It counts as cell-based, Human Herpesvirus 1. On the procedure:
The effect of NQ 4 in the initial phases of the HHV-1 viral replication was done as previously described by Cardozo et al., 2011 [53]. In the attachment assay, pre-chilled (1 h at 4 °C) Vero cell monolayers were exposed to viruses (100 PFU/well) in presence or absence of the compound and were incubated for 2 h at 4 °C. After incubation, the substance and unbounded viruses were removed with cold PBS; cells were overlaid with CMC 1% and incubated for 72 h at 37 °C (5% CO2). In the entry assay, pre-chilled cells were infected with viruses (100 PFU/well) and incubated for 2 h at 4 °C. After this time, the unbound viruses were removed with cold PBS; cells were treated with different concentrations of pre-warmed compound, and then incubated for 1 h at 37 °C. Unabsorbed viruses were inactivated using citrate buffer (pH = 3.0) and then cells were washed with PBS, overlaid with CMC 1%, and incubated for 72 h at 37 °C (5% CO2). In both assays, further procedures were the same mentioned previously for the plaque reduction assay and dextran sulfate (DS) was included as positive control.
In these tests, the evaluated NQ 4 concentration range was from 0.1 to 0.8 µg/mL and the effective concentration fifty (EC50), the concentration that reduces the 50% of plaque forming units, was determined from dose-effect curves by linear regression methods for each compound. […]

For assay [1], the system named is Human Herpesvirus type 1 (HHV-1). Description: End-point titration technique (EPTT), anti-herpetic screening on infected Vero cells. It counts as cell-based. The note with it: for Rf (reduction factor of the viral titer), HHV-1: 1 TCID50, 48 h. On the procedure: (§1) The in vitro antiviral evaluation of the 27 substances against Human Herpesvirus type 1 (HHV-1) and 2 (HHV-2) was made on infected Vero cells, using the end-point titration technique (EPTT).
(§2) The antiviral activity of molecules against 1 and 10 Cell Culture Infectious Dose 50% (10TCID50) of HHV-1 and HHV-2, respectively, was determined using end-point titration technique (EPTT). Vero cells grown in 96-well plates at a density of 2.0 × 10^4 cells/well were incubated at 37 °C in 5% CO2 atmosphere until constitute 80% of cell monolayer. Then, viral suspensions of HHV-1 or HHV-2 with concentrations of 6.25 µg/mL to 50 µg/mL of compounds were performed in DMEM supplemented with 2% FBS containing 1% and 0.5% carboxymethylcellulose (CMC) for HHV-1 and HHV-2, respectively. Mixture was incubated during 15 minutes at room temperature and was added to the cell monolayer. After 48 h of incubation at 37 °C (5% CO2), the cytopathic effect was examined, the microplates were fixed with 3.5% formaldehyde and stained with 0.2% crystal violet. Two independent experiments by quadruplicate for each viral serotype and each were carried out. Positive controls, such as dextran sulfate (DS) and acyclovir (A) for early stages and late stages of infection, respectively, were included.

In assay [2] the test system is Human Herpesvirus type 2 (HHV-2). The description is as above. It is filed as cell-based, Human Herpesvirus 2. The note with it: for Rf (reduction factor of the viral titer), HHV-2: 10 TCID50, 48 h. On the procedure: as §1, §2
The subject of another assay is HeLa. Description: MTT cytotoxicity assay. It counts as cell-based. Conditions: Homo sapiens, HeLa ATCC CRL-1958, 48 h, read-out: IC50 ± SD, HeLa. On the procedure:
(§3) Then, each diluted molecule was added to the cells and incubated for further 48 h at 37 °C, 5% CO2. […] The DMSO was then added to dissolve the formed formazan crystals and absorbance was determined spectrophotometrically at 570 nm. […] IC50 values were expressed as the mean ± standard deviation (M ± SD) of two independent experiments done in quadruplicate.
A general note: Tetrazolium dyes change colour on reduction, which living cells bring about.

The subject of the next assay is Jurkat. Description: MTT cytotoxicity assay. It counts as cell-based. Conditions: Homo sapiens, Jurkat ATCC TIB-152, 48 h, read-out: IC50 ± SD, Jurkat. On the procedure:
as §3

The test system of the next assay is Vero. Description: MTT cytotoxicity assay, non-tumor cells. It counts as cell-based, Cercopithecus aethiops. The note with it: Chlorocebus sabaeus. On the procedure:
The in vitro cytotoxicity evaluation of quinones was performed using the 3-(4,5 dimethylthiazol-2-yl)-2,5-diphenyltetrazolium bromide (MTT, Sigma, Cream Ridge, NJ, USA) assay as described by Betancur-Galvis et al. 2002 [22]. Briefly, Vero and HeLa cell lines were seeded at 2.0 × 10^3 cells per well of 96-well plates in DMEM supplemented with 10% of inactivated FBS, and were incubated for 24 h at 37 °C, 5% CO2. Then, each diluted molecule was added to the cells and incubated for further 48 h at 37 °C, 5% CO2. Jurkat cell line at 3 × 10^3 cells per well in a 96-well round-bottomed plate and diluted substances in RPMI-1640 medium (Sigma) supplemented with 10% FBS were plated simultaneously. After 48 h of treatment at 37 °C, 5% CO2, the media was carefully removed and 28 µL of MTT solution (4 mg/mL) was added to each well, and the plates were incubated for 2 h at 37 °C, 5% CO2. The DMSO was then added to dissolve the formed formazan crystals and absorbance was determined spectrophotometrically at 570 nm.
The minimal dilution of compound that caused 50% inhibition of the cells (IC50) was calculated by linear regression analysis of the dose-response curves generated from the absorbance data with the statistical GraphPad Prisma 5.0. IC50 values were expressed as the mean ± standard deviation (M ± SD) of two independent experiments done in quadruplicate.

Like-named read-outs stand apart in the source and are kept apart here.

What is called EC50 is the concentration at which the effect is half-maximal. By IC50 is commonly meant the midpoint of a concentration-inhibition curve. Take `CC(C)CCCc1ccc2c(c1)C(=O)C(Cl)=C(Cl)C2=O` [NQ 4]: the EC50 came out at 0.38 µM in the assay with HHV-1 and 0.12 µg/mL in the assay on HHV-1 (2 h at 4 °C, 0.1–0.8 µg/mL). The results for the “Rf (reduction factor of the viral titer), HHV-1” value in assay [1] and in assay [1] (listed as 4) were 1 × 10^2 and 10^2, respectively. Also, the minimal effective concentration in assay [1] (Human alphaherpesvirus 1, 1 TCID50, 48 h, tested 6.25-50 µg/mL, read-out: 1 TCID50: non-toxic concentration that showed viral reduction factor, HHV-1) is 6.25 µg/mL; in assay [2] (Human alphaherpesvirus 2, 10 TCID50, 48 h, tested 6.25-50 µg/mL, read-out: 10 TCID50: non-toxic concentration that showed viral reduction factor, HHV-2), 12.5 µg/mL. The “Rf (reduction factor of the viral titer), HHV-2” value is given as 1 × 10^2 in assay [2] and 10^2 in assay [2] (listed as 4). Also, the IC50 with HeLa was 46.6 ± 3.3 µM; in the assay with Jurkat it was 36.3 ± 2 µM; with Vero (Vero ATCC CCL-81, 48 h, MTT, read-out: IC50 ± SD, Vero), at least 643 µM; in the assay with Vero (non-tumoral Vero cells, data not shown, read-out: IC50 on Vero cells) it was above 200 µg/mL.

These data come from article PMC6479402, “Anti-Herpetic, Anti-Dengue and Antineoplastic Activities of Simple and Heterocycle-Fused Derivatives of Terpenyl-1,4-Naphthoquinone and 1,4-Anthraquinone” (Molecules, 2019).
